Where two headings read alike, the source gives them in different places.
Tests used:
[1] = system: HepG2-A16-CD81EGFP cells; assay: cells; conditions: Homo sapiens; for IC50: HepG2, read-out: Tox IC50; for inhibition at 50 µM: HepG2, read-out: Tox max inhibition (%) @ 50 uM; for inhibition at 10 µM: HepG2, read-out: Tox max inhibition (%) @ 10 uM
[2] = system: Plasmodium berghei (Pb-Luc) exoerythrocytic-stage parasites; assay: microbe, parasite or virus in culture; conditions: for inhibition at 10 µM: read-out: PbLuc max inhibition (%) @ 10 uM
[3] = molecular target: QuantiLum Recombinant Luciferase (Photinus pyralis, UniProt P08659); assay: Bioluminescence quantification of compound luciferase inhibition; conditions: for Emax: read-out: LucInhib max inhibition
Chain of QuantiLum Recombinant Luciferase (P08659 whole entry): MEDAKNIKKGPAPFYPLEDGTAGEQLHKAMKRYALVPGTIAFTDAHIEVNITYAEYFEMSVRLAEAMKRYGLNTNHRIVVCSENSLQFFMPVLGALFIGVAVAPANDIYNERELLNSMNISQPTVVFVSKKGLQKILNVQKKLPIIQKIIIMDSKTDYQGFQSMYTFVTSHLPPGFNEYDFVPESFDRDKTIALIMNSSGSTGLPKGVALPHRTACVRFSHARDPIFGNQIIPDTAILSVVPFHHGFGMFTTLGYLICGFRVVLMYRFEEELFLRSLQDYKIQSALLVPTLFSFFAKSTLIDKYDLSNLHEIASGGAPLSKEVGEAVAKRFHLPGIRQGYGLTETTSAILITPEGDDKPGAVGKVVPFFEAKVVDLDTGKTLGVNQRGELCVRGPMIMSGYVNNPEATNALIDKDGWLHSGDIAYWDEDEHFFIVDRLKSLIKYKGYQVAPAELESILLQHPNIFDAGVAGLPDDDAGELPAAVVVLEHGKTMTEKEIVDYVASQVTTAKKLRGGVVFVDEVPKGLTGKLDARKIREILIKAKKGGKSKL

[4] = system: HepG2-A16-CD81EGFP cells; assay: cells; conditions: Homo sapiens, HepG2, read-out: % inhibition
[5] = system: HepG2-A16-CD81EGFP cells; conditions: human, 50 uM
[6] = HepG2, read-out: HepG2 Tox% @ 50 uM rep1
[7] = HepG2, read-out: HepG2 Tox% @ 50 uM rep2
[8] = read-out: Inhibition% @ 50 uM rep1
[9] = read-out: Inhibition% @ 50 uM rep2
[10] = read-out: PbLuc IC50, dose response, 1/3 dilutions, max conc. 10 or 50 uM, unit inferred
[11] = read-out: PbLuc max inhibition (%) @ 50 uM
[12] = read-out: PbLuc IC50, dose response, unit inferred

Row | SMILES | cytotoxicity at 50 µM [1, 6] | cytotoxicity at 50 µM [1, 7] | IC50 [1] | inhibition at 50 µM [1] | inhibition at 50 µM [2, 8] | inhibition at 50 µM [2, 9] | IC50 [2, 10] | inhibition at 50 µM [2, 11] | IC50 [3] | Emax [3] | IC50 [2, 12] | inhibition at 10 µM [1] | inhibition at 10 µM [2] | inhibition at 50 µM [4] | HepG2 Tox% @ 50 uM rep1 [5] | HepG2 Tox% @ 50 uM rep2 [5]
1 | Cc1ccc(Cn2c(N3CCC(C(=O)NCc4cccs4)CC3)nc3ccccc32)cc1 [MMV007564] | 97% | 99% | > 50 µM | 69% | 104% | 105% | 2.09 µM | 106% | > 50 µM | 27% |  |  |  |  |  | 
2 | CCOc1ccc(C=Cc2nc(=O)c3ccccc3o2)cc1 [MMV665940] | 19% | 1% | > 50 µM | 18% | 102% | 101% | 0.646 µM | 104% | 16.5 µM | 85% |  |  |  |  |  | 
3 | CCOc1ccc(Nc2ccnc3cc(Cl)ccc23)cc1 [MMV007285] | 16% |  | > 50 µM | 14% | 88% | 91% | 1.65 µM | 100% | > 50 µM | 47% |  |  |  |  |  | 
4 | O=C(NC1CCCC1)c1ccc(N2CCC(NCc3cccc(C(F)(F)F)c3)CC2)cc1 [MMV666070] | -11% | 8.43% | > 50 µM | 10% | 98% | 96% | 1.86 µM | 98% | > 50 µM | 18% |  |  |  |  |  | 
5 | COc1cc(CNCCc2ccc(Cl)cc2)cc(OC)c1O [MMV128432] | -13% |  | > 50 µM | 33% | 90% | 93% |  | 73% | > 50 µM | 39% | > 50 µM |  |  |  |  | 
6 | CCOC(=O)c1cn(CC)c2cc(N3CCCCC3)c(F)cc2c1=O [MMV665827] | -12% | -7% | > 10 µM |  | 102% | 105% | 0.0743 µM |  | > 20 µM | 24% |  | 15% | 99% |  |  | 
7 | CCCCOc1ccc(C(=O)Nc2cc(C)on2)cc1 [MMV007906] | -15% | -10% | > 10 µM |  | 98% | 98% | 0.907 µM |  | > 20 µM | 34% |  | 7.53% | 97% |  |  | 
8 | Cc1c(C)n(Cc2ccc(F)cc2)c2ccc(C(=O)NCc3ccco3)cc12 [MMV008149] | 9% | 19% | > 50 µM | 32% | 102% | 102% | 0.765 µM | 107% | > 50 µM | 10% |  |  |  |  |  | 
9 | COCCn1c(C)nc2ccccc2c1=O [MMV665904] | 1.26% | -3% | > 10 µM |  | 100% | 102% | 1.99 µM |  | > 20 µM | 13% |  | 22% | 90% |  |  | 
10 | COc1cccc(NC(=O)[C@H](C(C)C)n2c(=O)[nH]c3ccccc3c2=O)c1 [MMV665878] | 12% | 4.53% | > 50 µM | 13% | 102% | 102% | 13.2 µM | 101% | > 50 µM | 28% |  |  |  |  |  | 
11 | Cc1cc(NC(=O)c2ccc(-c3ccccc3)cc2)no1 [MMV018984] | -22% | -20% | > 10 µM |  | 101% | 100% | 0.79 µM |  | > 20 µM | 58% |  | 19% | 101% |  |  | 
12 | CCOc1ccc(CCNC(=O)c2cccs2)cc1OCC [MMV007978] | 43% | 10% | > 50 µM | 8% | 104% | 106% | 7.94 µM | 104% | > 50 µM | 34% |  |  |  |  |  | 
13 | CCCCc1c(C)nc2c(OC)cccc2c1O [MMV006820] | -15% | -12% | > 10 µM |  | 99% | 102% | 0.162 µM |  | > 20 µM | 41% |  | 15% | 110% |  |  | 
14 | COc1ccc(CCNC(=O)c2cc(S(=O)(=O)N3CC(C)CC(C)C3)ccc2Sc2ccc(F)cc2)cc1OC (stereo not shown) [MMV007557] |  |  |  |  | 19% | 15% |  |  |  |  |  |  |  | -11.7% | -12% | 
15 | CCOc1ccc(N2C(N)=NC(N)=NC2(C)C)cc1 [MMV667486] |  |  |  |  | 21% | 22% |  |  |  |  |  |  |  | -13.4% | -13% | 
16 | O=C(NCC1Cc2cccc(-c3ccncc3)c2O1)c1csc2c1CCCC2 (stereo not shown) [MMV665954] |  |  |  |  | 100% | 102% |  |  |  |  |  |  |  | 95.9% |  | 98%
17 | COc1ccc(-c2nc(N3CCN(C(=O)C4CCCCC4)CC3)c3c4c(sc3n2)CCCC4)cc1 [MMV396594] | 2.59% |  | > 50 µM | 37% | 98% | 98% |  | 69% | > 50 µM | 44% | 39.9 µM |  |  |  |  | 

Row | SMILES | cytotoxicity at 50 µM [1, 6] | cytotoxicity at 50 µM [1, 7] | IC50 [1] | inhibition at 50 µM [1] | inhibition at 50 µM [2, 8] | inhibition at 50 µM [2, 9] | IC50 [2, 10] | inhibition at 50 µM [2, 11] | IC50 [3] | Emax [3] | IC50 [2, 12] | inhibition at 10 µM [1] | inhibition at 10 µM [2] | inhibition at 50 µM [4] | HepG2 Tox% @ 50 uM rep1 [5] | HepG2 Tox% @ 50 uM rep2 [5]
18 | COc1ccc2nc(C)cc(Nc3ccc(Cl)cc3)c2c1 [MMV007875] |  |  |  |  | 99% | 101% |  |  |  |  |  |  |  | 94.8% |  | 99%
19 | CCc1ccc(Nc2cc(C)c3ccc(O)cc3n2)cc1 [MMV000570] |  |  |  |  | 103% | 105% |  |  |  |  |  |  |  | 98.1% |  | 100%
20 | CCN1CCN(Cc2ccc(NC(=O)c3cc4ccc5cccnc5c4[nH]3)cc2)CC1 [MMV020548] |  |  |  |  | 102% | 106% |  |  |  |  |  |  |  | 98.4% |  | 100%
21 | COc1ccc(Nc2nc(NCc3ccccc3)c3ccccc3n2)cc1 [MMV000963] |  |  |  |  | 103% | 106% |  |  |  |  |  |  |  | 99.3% |  | 100%
22 | OC(CNC1CCCCC1)Cn1c2ccccc2c2ccccc21 (stereo not shown) [MMV009063] |  |  |  |  | 104% | 105% |  |  |  |  |  |  |  | 98.6% |  | 101%
23 | CCOC(=O)C1=C(C)N=c2sc(=Cc3ccccc3O)c(=O)n2C1c1ccc(OC)c2ccccc12 (stereo not shown) [MMV666604] |  |  |  |  | 53% | 33% |  |  |  |  |  |  |  | -7.73% | -8% | 
24 | CN(C)c1ccc(N2C(N)=NC(N)=NC2(C)C)cc1 [MMV667487] |  |  |  |  | 71% | 82% |  |  |  |  |  |  |  | -8.72% | -9% | 
25 | CCOC(=O)C1=C(C)N=c2sc(=Cc3cc(Cl)ccc3O)c(=O)n2C1c1ccc(OC)cc1 (stereo not shown) [MMV665971] |  |  |  |  | 103% | 104% |  |  |  |  |  |  |  | 99.7% | 100% | 
26 | CCC(=O)Nc1nnc(Cc2ccc(OC)c(OC)c2)s1 [MMV020942] |  |  |  |  | -19% | -37% |  |  |  |  |  |  |  | -25.5% | -26% | 
27 | COCCNC(=O)c1ccc(OC2CCN(Cc3ccc(F)c(F)c3)CC2)c(Cl)c1 [MMV666072] |  |  |  |  | 100% | 102% |  |  |  |  |  |  |  | 90.7% |  | 97%
28 | Oc1c(C(Nc2ccccn2)c2cccc(Oc3ccccc3)c2)ccc2cccnc12 (stereo not shown) [MMV665814] |  |  |  |  | -33% | -6% |  |  |  |  |  |  |  | -17.3% | -17% | 
29 | O=C(Nc1cccc(-c2nc3ccccc3[nH]2)c1)c1cccc(NC(=O)c2ccco2)c1 [MMV665883] |  |  |  |  | 101% | 102% |  |  |  |  |  |  |  | 97.2% |  | 99%
30 | CCC(C)NCC(O)(c1ccc(Cl)cc1)c1ccc(Cl)cc1 (stereo not shown) [MMV665928] |  |  |  |  | 104% | 106% |  |  |  |  |  |  |  | 99.2% |  | 102%
31 | O=C(NC1CCN(Cc2ccccc2)CC1)c1cc2nc(-c3ccc(Cl)s3)cc(C(F)(F)F)n2n1 [MMV396635] |  |  |  |  | 7.6% | 24% |  |  |  |  |  |  |  | -29.6% | -30% | 
32 | CCOc1cccc2sc(N(Cc3cccnc3)C(=O)C3CCCCC3)nc12 [MMV001230] |  |  |  |  | 102% | 103% |  |  |  |  |  |  |  | 97.3% |  | 99%
33 | CCN(CC)c1cc(C)c2cc(NC(=O)c3cccc(OC)c3)ccc2n1 [MMV000498] |  |  |  |  | 104% | 106% |  |  |  |  |  |  |  | 99.5% | 100% | 101%

From PMC4890880 (ACS infectious diseases, 2016)
